Consider one cell line from the supplement of paper PMC10307832.

Common to all, as to assay: relative viability (nuclei count vs DMSO), 5 days (fraction); higher = more cells survive
Compound in assay [1]: COc1cc2nccc(Oc3ccc(NC(=O)C4(C(=O)Nc5ccc(F)cc5)CC4)cc3)c2cc1OC [Cabozantinib] + O=C(CCCCCCC(=O)Nc1ccccc1)NO [Vorinostat] (partner 1 µM)
Put shortly: (§1)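 Five library-drug doses in √10 steps were combined with a fixed anchor-drug dose, or a single drug was given alone, by pin tool to lung cancer cell lines in 1536-well plates the day after seeding. Nuclei were stained and counted after 5 days. Relative viability is the nuclei count in treated wells over that in vehicle wells, taken as the median of duplicate plates.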

Compound in assay [2]: COc1cc2nccc(Oc3ccc(NC(=O)C4(C(=O)Nc5ccc(F)cc5)CC4)cc3)c2cc1OC [Cabozantinib] + C[C@@H](Oc1cc(-c2cnn(C3CCNCC3)c2)cnc1N)c1c(Cl)ccc(F)c1Cl [Crizotinib] (partner 1 µM)
An outline of the steps:
as §1

Compound in the assay “Kobe2602 + Lapatinib”: C1=CC(=CC=C1NC(=S)NNC2=C(C=C(C=C2[N+](=O)[O-])C(F)(F)F)[N+](=O)[O-])F [Kobe2602] + CS(=O)(=O)CCNCc1ccc(-c2ccc3ncnc(Nc4ccc(OCc5cccc(F)c5)c(Cl)c4)c3c2)o1 [Lapatinib] (partner 2 µM)
An outline of the steps: as §1

Compound in the assay “Zosuquidar + Lapatinib”: O[C@@H](COc1cccc2ncccc12)CN1CCN([C@@H]2c3ccccc3[C@@H]3[C@H](c4ccccc42)C3(F)F)CC1 [Zosuquidar] + CS(=O)(=O)CCNCc1ccc(-c2ccc3ncnc(Nc4ccc(OCc5cccc(F)c5)c(Cl)c4)c3c2)o1 [Lapatinib] (partner 2 µM)
An outline of the steps:
as §1

For UMC-11, the relative viability was 0.302 in assay [1] (first compound 0.02 µM); 0.336 in assay [1] (first compound 0.06325 µM); 0.37 in assay [1] (first compound 0.2 µM); 0.323 in assay [1] (first compound 0.6325 µM); 0.332 in assay [1] (first compound 2 µM); 0.609 in assay [2] (first compound 0.02 µM). For the same cell line, the relative viability in assay [2] (first compound 0.06325 µM) was 0.592; in assay [2] (first compound 0.2 µM) it was 0.717; in assay [2] (first compound 0.6325 µM), 0.668; in assay [2] (first compound 2 µM), 0.578; in the assay with Kobe2602 + Lapatinib (first compound 0.2 µM), 0.696; in the assay with Kobe2602 + Lapatinib (first compound 0.6325 µM), 1. Besides, the relative viability was 0.958 in the assay with Kobe2602 + Lapatinib (first compound 2 µM); 1.07 with Kobe2602 + Lapatinib (first compound 6.325 µM); 1.12 in the assay with Kobe2602 + Lapatinib (first compound 20 µM); 0.895 with Zosuquidar + Lapatinib (first compound 0.01 µM); 1.07 with Zosuquidar + Lapatinib (first compound 0.03162 µM); 0.89 with Zosuquidar + Lapatinib (first compound 0.1 µM). For the same cell line, the relative viability with Zosuquidar + Lapatinib (first compound 0.3162 µM) was determined as 1.14; with Zosuquidar + Lapatinib (first compound 1 µM) it was 0.96.
